Experimental data as given in PubChem BioAssay (NCI).
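Dose response: 5 concentrations. Exposure: 48 h. Format: 96-well plates. Endpoint: linear interpolation; highest concentration if not reached. TGI denotes the concentration required for complete inhibition of growth.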

Key:
Assay in all cases: NCI-60 cell line screen, 48 h
SF-539 CNS = system: SF-539 CNS
HCT-116 colon = system: HCT-116 colon
MALME-3M melanoma = system: MALME-3M melanoma
HT29 colon = system: HT29 colon
SN12C renal = system: SN12C renal
MDA-MB-435 = system: MDA-MB-435
OVCAR-5 ovarian = system: OVCAR-5 ovarian
SK-MEL-5 melanoma = system: SK-MEL-5 melanoma
UO-31 renal = system: UO-31 renal
TK-10 renal = system: TK-10 renal
NCI/ADR-RES ovarian = system: NCI/ADR-RES ovarian
786-0 renal = system: 786-0 renal
SNB-75 CNS = system: SNB-75 CNS
SF-268 CNS = system: SF-268 CNS
HCT-15 colon = system: HCT-15 colon
PC-3 prostate = system: PC-3 prostate
OVCAR-8 ovarian = system: OVCAR-8 ovarian
EKVX NSCLC = system: EKVX NSCLC
MDA-MB-231 breast = system: MDA-MB-231 breast
NCI-H460 lung = system: NCI-H460 lung
SK-OV-3 ovarian = system: SK-OV-3 ovarian
UACC-62 melanoma = system: UACC-62 melanoma
U251 CNS = system: U251 CNS
K-562 leukemia = system: K-562 leukemia
LOX IMVI melanoma = system: LOX IMVI melanoma
M14 melanoma = system: M14 melanoma
SF-295 CNS = system: SF-295 CNS
OVCAR-3 ovarian = system: OVCAR-3 ovarian
IGROV1 ovarian = system: IGROV1 ovarian
HOP-92 NSCLC = system: HOP-92 NSCLC
A498 renal = system: A498 renal
SNB-19 CNS = system: SNB-19 CNS
KM12 colon = system: KM12 colon
COLO 205 colon = system: COLO 205 colon
RPMI-8226 leukemia = system: RPMI-8226 leukemia
SK-MEL-2 melanoma = system: SK-MEL-2 melanoma
DU-145 prostate = system: DU-145 prostate
SK-MEL-28 melanoma = system: SK-MEL-28 melanoma
ACHN renal = system: ACHN renal
HCC-2998 colon = system: HCC-2998 colon
CAKI-1 renal = system: CAKI-1 renal
UACC-257 melanoma = system: UACC-257 melanoma
RXF 393 renal = system: RXF 393 renal
HS 578T breast = system: HS 578T breast
NCI-H522 lung = system: NCI-H522 lung
NCI-H226 lung = system: NCI-H226 lung
MDA-N = system: MDA-N
MCF7 breast = system: MCF7 breast
SW-620 colon = system: SW-620 colon
BT-549 breast = system: BT-549 breast
SR leukemia = system: SR leukemia
HOP-62 NSCLC = system: HOP-62 NSCLC
NCI-H23 lung = system: NCI-H23 lung
A549 NSCLC = system: A549 NSCLC
OVCAR-4 ovarian = system: OVCAR-4 ovarian
HL-60(TB) leukemia = system: HL-60(TB) leukemia
CCRF-CEM leukemia = system: CCRF-CEM leukemia
MOLT-4 leukemia = system: MOLT-4 leukemia

With `Cc1ccc(C(O)c2cnc(C)n2Cc2ccccc2)cc1` (stereo not drawn) the TGI (SF-539 CNS) was over 100 µM, the TGI (HCT-116 colon) was over 100 µM and the TGI (MALME-3M melanoma) was over 100 µM. For the same compound, the TGI (HT29 colon) was over 100 µM, the TGI (SN12C renal) was over 100 µM and the TGI (MDA-MB-435) was over 100 µM. It also gave a TGI (OVCAR-5 ovarian) of over 100 µM, a TGI (SK-MEL-5 melanoma) of over 100 µM and a TGI (UO-31 renal) of over 100 µM. It also gave a TGI (TK-10 renal) of over 100 µM, a TGI (NCI/ADR-RES ovarian) of over 100 µM and a TGI (786-0 renal) of over 100 µM. It also gave a TGI (SNB-75 CNS) of over 100 µM, a TGI (SF-268 CNS) of over 100 µM and a TGI (HCT-15 colon) of over 100 µM. The TGI (PC-3 prostate) was over 100 µM, the TGI (OVCAR-8 ovarian) was over 100 µM and the TGI (EKVX NSCLC) was over 100 µM. For the same compound, the TGI (MDA-MB-231 breast) was over 100 µM, the TGI (NCI-H460 lung) was over 100 µM and the TGI (SK-OV-3 ovarian) was over 100 µM. The TGI (UACC-62 melanoma) was over 100 µM, the TGI (U251 CNS) was over 100 µM and the TGI (K-562 leukemia) was over 100 µM. The TGI (LOX IMVI melanoma) was over 100 µM, the TGI (M14 melanoma) was over 100 µM and the TGI (SF-295 CNS) was over 100 µM. It also gave a TGI (OVCAR-3 ovarian) of over 100 µM, a TGI (IGROV1 ovarian) of over 100 µM and a TGI (HOP-92 NSCLC) of over 100 µM. For the same compound, the TGI (A498 renal) was over 100 µM, the TGI (SNB-19 CNS) was over 100 µM and the TGI (KM12 colon) was over 100 µM. For the same compound, the TGI (COLO 205 colon) was over 100 µM, the TGI (RPMI-8226 leukemia) was over 100 µM and the TGI (SK-MEL-2 melanoma) was over 100 µM. The TGI (DU-145 prostate) was over 100 µM, the TGI (SK-MEL-28 melanoma) was over 100 µM and the TGI (ACHN renal) was over 100 µM. For the same compound, the TGI (HCC-2998 colon) was over 100 µM, the TGI (CAKI-1 renal) was over 100 µM and the TGI (UACC-257 melanoma) was over 100 µM. The TGI (RXF 393 renal) was over 100 µM, the TGI (HS 578T breast) was over 100 µM and the TGI (NCI-H522 lung) was over 100 µM. For the same compound, the TGI (NCI-H226 lung) was over 100 µM, the TGI (MDA-N) was over 100 µM and the TGI (MCF7 breast) was over 100 µM. The TGI (SW-620 colon) was over 100 µM, the TGI (BT-549 breast) was over 100 µM and the TGI (SR leukemia) was over 100 µM. It also gave a TGI (HOP-62 NSCLC) of over 100 µM, a TGI (NCI-H23 lung) of over 100 µM and a TGI (A549 NSCLC) of over 100 µM. It also gave a TGI (OVCAR-4 ovarian) of over 100 µM and a TGI (HL-60(TB) leukemia) of over 100 µM.
For `CC(=O)Nc1ccc2c3c(cc(O)c2c1)N(C(=O)CCCCC(=O)Nc1ccc2c4c(cc(O)c2c1)N(C(=O)OC(C)(C)C)CC4CCl)CC3CCl` (stereo not drawn), the TGI (SF-539 CNS) was 7.62 µM, the TGI (HCT-116 colon) was over 33.2 µM and the TGI (MALME-3M melanoma) was 3.52 µM. It also gave a TGI (HT29 colon) of over 37.9 µM, a TGI (SN12C renal) of 21.8 µM and a TGI (MDA-MB-435) of 2.95 µM. For the same compound, the TGI (OVCAR-5 ovarian) was 10.6 µM, the TGI (CCRF-CEM leukemia) was 4.53 µM and the TGI (SK-MEL-5 melanoma) was 3.18 µM. It also gave a TGI (UO-31 renal) of over 63.9 µM, a TGI (TK-10 renal) of over 65.5 µM and a TGI (NCI/ADR-RES ovarian) of over 79.7 µM. For the same compound, the TGI (786-0 renal) was 9.36 µM, the TGI (SNB-75 CNS) was 4.59 µM and the TGI (SF-268 CNS) was 7.21 µM. The TGI (HCT-15 colon) was 48.2 µM, the TGI (PC-3 prostate) was over 44.8 µM and the TGI (OVCAR-8 ovarian) was over 38.7 µM. It also gave a TGI (EKVX NSCLC) of 35.2 µM, a TGI (MOLT-4 leukemia) of over 34.4 µM and a TGI (MDA-MB-231 breast) of 26.8 µM. The TGI (NCI-H460 lung) was over 33.8 µM, the TGI (SK-OV-3 ovarian) was over 85.3 µM and the TGI (UACC-62 melanoma) was 3.16 µM. The TGI (U251 CNS) was 10 µM, the TGI (K-562 leukemia) was over 100 µM and the TGI (LOX IMVI melanoma) was over 34.6 µM. For the same compound, the TGI (M14 melanoma) was over 34.1 µM, the TGI (SF-295 CNS) was over 56.8 µM and the TGI (OVCAR-3 ovarian) was 5.41 µM. The TGI (IGROV1 ovarian) was over 32.8 µM, the TGI (HOP-92 NSCLC) was 32.8 µM and the TGI (A498 renal) was 4.57 µM. It also gave a TGI (SNB-19 CNS) of over 29.5 µM, a TGI (KM12 colon) of over 100 µM and a TGI (COLO 205 colon) of 4.17 µM. It also gave a TGI (RPMI-8226 leukemia) of over 25.8 µM, a TGI (SK-MEL-2 melanoma) of 3.49 µM and a TGI (DU-145 prostate) of 4.39 µM. For the same compound, the TGI (SK-MEL-28 melanoma) was 23.2 µM, the TGI (ACHN renal) was 16.1 µM and the TGI (HCC-2998 colon) was 3.79 µM. The TGI (CAKI-1 renal) was 71.5 µM, the TGI (UACC-257 melanoma) was 5.16 µM and the TGI (RXF 393 renal) was 3.26 µM. For the same compound, the TGI (HS 578T breast) was over 26.6 µM, the TGI (NCI-H522 lung) was 4.1 µM and the TGI (NCI-H226 lung) was 5.55 µM. The TGI (MDA-N) was 3.85 µM, the TGI (MCF7 breast) was 5.16 µM and the TGI (SW-620 colon) was over 100 µM. It also gave a TGI (BT-549 breast) of over 27.1 µM, a TGI (HOP-62 NSCLC) of over 33.2 µM and a TGI (NCI-H23 lung) of 7.09 µM. For the same compound, the TGI (A549 NSCLC) was over 55.6 µM, the TGI (OVCAR-4 ovarian) was over 24.3 µM and the TGI (HL-60(TB) leukemia) was 12.4 µM.
